Counter-ions that a name gives are not always drawn.
target: ATM (Homo sapiens (Human), UniProt Q13315); experiment: ATM in Cell Western Assay (pKAP1 in etoposide-treated MCF-7 cells); type: cell-based; conditions: MCF-7 cells, etoposide 100 μM, 1 hr, pKAP1 readout
Outline: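 Cells received compounds in a 10-dose, 3-fold series from a 1 μM final top concentration, then 100 μM etoposide, for 1 hr at 37° C. They were then fixed with paraformaldehyde and permeabilized with 0.1% Triton X-100. After immunostaining, plates were scanned on an infrared imager.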

Sequence of ATM (Q13315 whole entry): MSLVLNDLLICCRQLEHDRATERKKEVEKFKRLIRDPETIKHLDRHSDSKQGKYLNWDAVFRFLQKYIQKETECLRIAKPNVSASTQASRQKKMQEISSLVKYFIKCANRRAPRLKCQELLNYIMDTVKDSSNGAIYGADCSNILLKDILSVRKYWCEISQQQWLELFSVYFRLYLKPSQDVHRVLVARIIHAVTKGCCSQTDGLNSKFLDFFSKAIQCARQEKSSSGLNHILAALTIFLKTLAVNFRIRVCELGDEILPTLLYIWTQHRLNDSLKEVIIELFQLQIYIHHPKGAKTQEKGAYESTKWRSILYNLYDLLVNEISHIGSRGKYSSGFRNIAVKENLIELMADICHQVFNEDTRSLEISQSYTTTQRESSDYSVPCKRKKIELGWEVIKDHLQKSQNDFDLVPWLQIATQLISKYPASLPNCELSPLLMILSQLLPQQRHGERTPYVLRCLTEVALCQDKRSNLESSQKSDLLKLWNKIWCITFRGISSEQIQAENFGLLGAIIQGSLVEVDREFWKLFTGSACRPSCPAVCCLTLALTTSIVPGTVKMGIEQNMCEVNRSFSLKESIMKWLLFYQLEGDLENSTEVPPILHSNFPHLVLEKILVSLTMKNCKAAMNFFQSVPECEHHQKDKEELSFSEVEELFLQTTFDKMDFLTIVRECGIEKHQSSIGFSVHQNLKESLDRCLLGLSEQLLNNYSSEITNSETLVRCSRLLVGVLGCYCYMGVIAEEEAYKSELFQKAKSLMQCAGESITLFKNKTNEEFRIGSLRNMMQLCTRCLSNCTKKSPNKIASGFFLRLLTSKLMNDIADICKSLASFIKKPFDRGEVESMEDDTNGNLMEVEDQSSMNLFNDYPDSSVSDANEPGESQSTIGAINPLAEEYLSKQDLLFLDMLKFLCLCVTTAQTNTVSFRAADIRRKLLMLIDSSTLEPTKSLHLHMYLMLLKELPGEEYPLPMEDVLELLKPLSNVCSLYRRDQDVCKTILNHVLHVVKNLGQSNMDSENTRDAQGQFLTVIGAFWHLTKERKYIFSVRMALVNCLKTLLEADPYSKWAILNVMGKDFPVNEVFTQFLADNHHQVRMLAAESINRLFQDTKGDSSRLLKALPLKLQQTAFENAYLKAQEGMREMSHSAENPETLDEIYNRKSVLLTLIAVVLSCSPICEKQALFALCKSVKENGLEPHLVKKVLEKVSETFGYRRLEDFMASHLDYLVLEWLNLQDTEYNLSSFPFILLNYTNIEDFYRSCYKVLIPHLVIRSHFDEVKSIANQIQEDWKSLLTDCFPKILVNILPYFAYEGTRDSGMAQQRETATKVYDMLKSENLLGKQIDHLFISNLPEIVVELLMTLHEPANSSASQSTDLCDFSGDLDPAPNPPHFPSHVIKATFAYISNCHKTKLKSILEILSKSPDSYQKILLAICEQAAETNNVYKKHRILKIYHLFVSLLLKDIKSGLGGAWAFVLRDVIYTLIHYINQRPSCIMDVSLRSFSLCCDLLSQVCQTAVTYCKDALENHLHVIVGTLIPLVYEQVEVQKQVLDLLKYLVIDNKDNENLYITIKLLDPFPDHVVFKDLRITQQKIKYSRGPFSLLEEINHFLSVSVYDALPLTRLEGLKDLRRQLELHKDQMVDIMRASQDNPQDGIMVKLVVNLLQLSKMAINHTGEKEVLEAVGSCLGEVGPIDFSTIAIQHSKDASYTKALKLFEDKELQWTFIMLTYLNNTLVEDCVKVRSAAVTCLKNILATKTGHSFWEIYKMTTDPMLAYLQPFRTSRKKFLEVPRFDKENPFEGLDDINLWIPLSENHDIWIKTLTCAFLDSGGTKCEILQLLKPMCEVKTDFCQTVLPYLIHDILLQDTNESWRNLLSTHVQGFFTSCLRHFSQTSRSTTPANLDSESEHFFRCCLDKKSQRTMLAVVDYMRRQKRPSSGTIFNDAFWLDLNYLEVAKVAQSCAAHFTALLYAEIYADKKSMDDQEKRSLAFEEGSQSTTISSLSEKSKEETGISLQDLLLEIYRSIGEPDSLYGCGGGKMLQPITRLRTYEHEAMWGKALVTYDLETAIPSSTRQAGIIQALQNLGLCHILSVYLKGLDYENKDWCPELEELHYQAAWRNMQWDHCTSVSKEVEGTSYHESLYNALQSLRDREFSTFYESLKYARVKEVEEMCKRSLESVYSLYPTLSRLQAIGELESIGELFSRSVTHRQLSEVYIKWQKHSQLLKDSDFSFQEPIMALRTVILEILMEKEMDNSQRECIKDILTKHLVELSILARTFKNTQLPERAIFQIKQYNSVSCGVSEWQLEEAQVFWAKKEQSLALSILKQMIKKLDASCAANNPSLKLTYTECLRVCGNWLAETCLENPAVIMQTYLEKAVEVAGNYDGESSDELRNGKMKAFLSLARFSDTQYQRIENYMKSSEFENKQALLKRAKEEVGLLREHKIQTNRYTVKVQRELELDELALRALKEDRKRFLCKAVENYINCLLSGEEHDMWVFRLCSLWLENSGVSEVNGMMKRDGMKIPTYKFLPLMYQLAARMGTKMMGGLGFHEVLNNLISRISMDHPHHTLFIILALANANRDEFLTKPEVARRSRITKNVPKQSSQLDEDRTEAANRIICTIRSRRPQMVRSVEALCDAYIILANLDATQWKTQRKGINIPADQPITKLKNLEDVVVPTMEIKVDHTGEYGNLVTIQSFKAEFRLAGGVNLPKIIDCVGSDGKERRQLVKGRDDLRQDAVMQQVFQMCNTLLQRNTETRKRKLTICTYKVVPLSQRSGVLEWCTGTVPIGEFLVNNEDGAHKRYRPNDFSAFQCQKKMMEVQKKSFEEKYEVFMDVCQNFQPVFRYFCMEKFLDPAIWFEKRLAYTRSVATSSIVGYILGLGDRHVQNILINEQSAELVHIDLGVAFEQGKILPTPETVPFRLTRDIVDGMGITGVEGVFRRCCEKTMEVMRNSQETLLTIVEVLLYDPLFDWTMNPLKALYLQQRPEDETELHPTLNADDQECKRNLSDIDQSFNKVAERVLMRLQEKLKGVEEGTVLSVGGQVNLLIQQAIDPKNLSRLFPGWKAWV

| Compound | IC50 |
| --- | --- |
| CN(C)c1ccc(-c2ncc(-c3ccc4ncc5c(c4c3)C3(CCC3)C(=O)N5C)cc2NS(C)(=O)=O)cn1 [Example 271, N-(6′-(Dimethylamino)-5-(3′-methyl-2′-oxo-2′,3′-dihydrospiro[cyclobutane-1,1′-pyrrolo[2,3-c]quinolin]-8′-yl)-[2,3′-bipyridin]-3-yl)methanesulfonamide] | 1 to 100 nM |
| CN(C)CCCOc1ncc(-c2ccc3ncc4c(c3c2)C2(CC2)C(=O)N4C)cc1NS(=O)(=O)c1ccc(Cl)nc1 [Example 105, 6-Chloro-N-(2-(3-(dimethylamino)propoxy)-5-(3′-methyl-2′-oxo-2′,3′-dihydrospiro[cyclopropane-1,1′-pyrrolo[2,3-c]quinolin]-8′-yl)pyridin-3-yl)pyridine-3-sulfonamide] | 1 to 100 nM |
| CN(C)CCCOc1ncc(-c2ccc3ncc4c(c3c2)C2(CC2)C(=O)N4C)cc1C(N)=O [Example 52, 2-(3-(Dimethylamino)propoxy)-5-(3′-methyl-2′-oxo-2′,3′-dihydrospiro[cyclopropane-1,1′-pyrrolo[2,3-c]quinolin]-8′-yl)nicotinamide] | > 100 nM |
| CCN(C)C1CN(c2ncc(-c3cc4c5c(cnc4cc3F)N(C)C(=O)C53CCC3)cc2NS(C)(=O)=O)C1 [Example 313, N-(2-(3-(Ethyl(methyl)amino)azetidin-1-yl)-5-(7′-fluoro-3′-methyl-2′-oxo-2′,3′-dihydrospiro[cyclobutane-1,1′-pyrrolo[2,3-c]quinolin]-8′-yl)pyridin-3-yl)methanesulfonamide hydrochloride] | 1 to 100 nM |
| CCCCN(C)S(=O)(=O)Nc1cc(-c2ccc3ncc4c(c3c2)C2(CCC2)C(=O)N4C)cnc1OCCCN(C)C [Example 176] | 1 to 100 nM |
| CC(C)N1C(=O)C2(CC2)c2c1cnc1ccc(-c3cnc(OCCCN(C)C)c(NS(=O)(=O)c4ccccc4)c3)cc21 [Example 31, N-(2-(3-(Dimethylamino)propoxy)-5-(3′-isopropyl-2′-oxo-2′,3′-dihydrospiro [cyclopropane-1,1′-pyrrolo[2,3-c]quinolin]-8′-yl)pyridin-3-yl) benzenesulfonamide] | > 100 nM |
| CN(C)CCCOc1ncc(-c2ccc3ncc4c(c3c2)C2(CCCC2)C(=O)N4C)cc1NC(=O)c1ccccc1 [Example 7] | > 100 nM |
| CNS(=O)(=O)c1cc(-c2ccc3ncc4c(c3c2)C2(CCC2)C(=O)N4C)cnc1OCCCN(C)C [Example 267, 2-(3-(Dimethylamino)propoxy)-N-methyl-5-(3′-methyl-2′-oxo-2′,3′-dihydrospiro[cyclobutane-1,1′-pyrrolo[2,3-c]quinolin]-8′-yl) pyridine-3-sulfonamide] | 1 to 100 nM |
| CCN1C(=O)C2(CCC2)c2c1cnc1ccc(-c3cnc(OCCNC)c(NS(C)(=O)=O)c3)cc21 [Example 308, N-(5-(3′-Ethyl-2′-oxo-2′,3′-dihydrospiro[cyclobutane-1,1′-pyrrolo[2,3-c]quinolin]-8′-yl)-2-(2-(methylamino)ethoxy)pyridin-3-yl) methanesulfonamide hydrochloride] | 1 to 100 nM |
| CN(C)CCCOc1ncc(-c2ccc3ncc4c(c3c2)C2(CCC2)C(=O)N4C)cc1NS(=O)(=O)N1CCCc2ccccc21 [Example 139] | 1 to 100 nM |
| CN1C(=O)C2(CCC2)c2c1cnc1ccc(-c3cnc(OCC(CO)N(C)C)c(NS(C)(=O)=O)c3)cc21 (stereo not drawn) [Example 296, N-(2-(2-(dimethylamino)-3-hydroxypropoxy)-5-(3′-methyl-2′-oxo-2′,3′-dihydrospiro[cyclobutane-1,1′-pyrrolo[2,3-c]quinolin]-8′-yl)pyridin-3-yl)methanesulfonamide] | > 100 nM |
| CN1C(=O)C2(CCC2)c2c1cnc1cc(F)c(-c3cnc(N4CC(N(C)C)C4)c(NS(=O)(=O)c4ccccc4F)c3)cc21 [Example 322, N-(2-(3-(Dimethylamino)azetidin-1-yl)-5-(7′-fluoro-3′-methyl-2′-oxo-2′,3′-dihydrospiro[cyclobulane-1,1′-pyrrolo[2,3-c]quinolin]-8′-yl)pyridin-3-yl)-2-fluorobenzenesulfonamide hydrochloride] | 1 to 100 nM |
| COCCN(C)C1CN(c2ncc(-c3cc4c5c(cnc4cc3F)N(C)C(=O)C53CCC3)cc2NS(C)(=O)=O)C1 [Example 314, N-(5-(7′-Fluoro-3′-methyl-2′-oxo-2′,3′-dihydrospiro[cyclobutane-1,1′-pyrrolo[2,3-c]quinolin]-8′-yl)-2-(3((2-methoxyethyl)(methyl)amino)azetidin-1-yl)pyridin-3-yl)methanesulfonamide hydrochloride] | 1 to 100 nM |
| CN(C)CCCOc1ncc(-c2ccc3ncc4c(c3c2)C2(CC2)C(=O)N4C)cc1NS(=O)(=O)c1ccc(C(F)(F)F)cc1 [Example 108] | < 0.5 nM |

same assay, conditions: pKAP1 in etoposide-treated MCF-7 cells

| Compound | IC50 |
| --- | --- |
| CC(C)NCCOc1ncc(-c2cc3c(cc2F)ncc2c3[C@]3(C[C@H](c4cc[nH]c(=O)c4)C3)C(=O)N2C)cc1NS(C)(=O)=O [Example 444, cis-N-(5-(7′-fluoro-3′-methyl-2′-oxo-3-(2-oxo-1,2-dihydropyridin-4-yl)-2,3′-dihydrospiro[cyclobulane-1,1′-pyrrolo[2,3-c]quinolin]-8′-yl)-2-(2-(isopropylamino)ethoxy)pyridin-3-yl)methanesulfonamide] | > 100 nM |
| CC(C)NCCOc1ncc(-c2cc3c(cc2F)ncc2c3[C@]3(C[C@@H](N(C)C)C3)C(=O)N2C)cc1NS(C)(=O)=O [Example 466, trans-N-(5-{3-(Dimethylamino)-7′-fluoro-3′-methyl-2′-oxo-2′,3′-dihydrospiro[cyclobutane-1,1′-pyrrolo[2,3-c]quinolin]-8′-yl)-2-(2-(isopropylamino)ethoxy)pyridin-3-yl)methanesulfonamide] | 1 to 100 nM |
| CCCN1CC2(C1)C(=O)N(C)c1cnc3cc(F)c(-c4cnc(OCCNC(C)C)c(NS(C)(=O)=O)c4)cc3c12 [Example 488, N-(5-(7′-Fluoro-3′-methyl-2′-oxo-1-propyl-2′,3′-dihydrospiro[azetidine-3,1′-pyrrolo[2,3-c]quinolin]-8′-yl)-2-(2-(isopropylamino)ethoxy)pyridin-3-yl)methanesulfonamide] | 1 to 100 nM |
| CN1C(=O)C2(CCC2)c2c1cnc1cc(F)c(-c3cnc(OCCNC4CC4)c(NS(C)(=O)=O)c3)cc21 [Example 376, N-(2-(2-(Cyclopropylamino)ethoxy)-5-(7′-fluoro-3′-methyl-2′-oxo-2′,3′-dihydrospiro[cyclobutane-1,1′-pyrrolo[2,3-c]quinolin]-8′-yl)pyridin-3-yl)methanesulfonamide hydrochloride] | 1 to 100 nM |
| CC(C)NCCOc1ncc(-c2cc3c(cc2F)ncc2c3[C@]3(C[C@H](N(C)C)C3)C(=O)N2C)cc1NS(C)(=O)=O [Example 465, cis-N-(5-(3-(Dimethylamino)-7′-fluoro-3′-methyl-2′-oxo-2′,3′-dihydrospiro[cyclobutane-1,1′-pyrrolo[2,3-c]quinolin]-8′-yl)-2-(2-(isopropylamino)ethoxy)pyridin-3-yl)methanesulfonamide] | 1 to 100 nM |
| CC(C)NCCOc1ncc(-c2cc3c4c(cnc3cc2F)N(C)C(=O)C42CN(c3nn[nH]n3)C2)cc1NS(C)(=O)=O [Example 550, N-(5-(7′-Fluoro-3′-methyl-2′-oxo-1-(2H-tetrazol-5-yl)-2′,3′-dihydrospiro [azetidine-3,1′-pyrrolo[2,3-c]quinolin]-8′-yl)-2-(2-(isopropylamino)ethoxy)pyridin-3-yl)methanesulfonamide] | > 100 nM |
| COC(=O)N1CC2(C1)C(=O)N(C)c1cnc3cc(F)c(-c4cnc(OCCNC(C)C)c(NS(C)(=O)=O)c4)cc3c12 [Example 513, Methyl7′-fluoro-8′-(6-(2-(isopropylamino)ethoxy)-5-(methylsulfonamido)pyridin-3-yl)-3′-methyl-2′-oxo-2′,3′-dihydrospiro[azetidine-3,1′-pyrrolo[2,3-c]quinoline]-1-carboxylate] | > 100 nM |
| CC(C)NCCOc1ncc(-c2cc3c(cc2F)ncc2c3[C@]3(C[C@H](c4ccc(F)cc4)C3)C(=O)N2C)cc1NS(C)(=O)=O [Example 422, cis-N-(5-(7′-Fluoro-3-(4-fluorophenyl)-3′-methyl-2′-oxo-2′,3′-dihydrospiro[cyclobutane-1,1′-pyrrolo[2,3-c]quinolin]-8′-yl)-2-(2-(isopropylamino)ethoxy)pyridin-3-yl)methanesulfonamide] | 1 to 100 nM |
| CC(C)NCCOc1ncc(-c2cc3c(cc2F)ncc2c3[C@]3(C[C@@H](N4CCCCC4)C3)C(=O)N2C)cc1NS(C)(=O)=O [Example 470, trans-N-{5-(7′-Fluoro-3′-methyl-2′-oxo-3-(piperidin-1-yl)-2′,3′-dihydrospiro[cyclobutane-1,1′-pyrrolo[2,3-c]quinolin]-8′-yl)-2-(2-(isopropylamino)ethoxy)pyridin-3-yl)methanesulfonamide hydrochloride] | 1 to 100 nM |
| CC(C)NCCOc1ncc(-c2cc3c(cc2F)ncc2c3[C@]3(C[C@@H](COC(C)C)C3)C(=O)N2C)cc1NS(C)(=O)=O [Example 411, trans-N-{5-(7′-Fluoro-3-(isopropoxymethyl)-3′-methyl-2′-oxo-2′,3′-dihydrospiro[cyclobutane-1,1′-pyrrolo[2,3-c]quinolin]-8′-yl)-2-(2-(isopropylamino)ethoxy)pyridin-3-yl)methanesulfonamide] | 1 to 100 nM |
| Cc1cc(S(=O)(=O)Nc2cc(-c3cc4c5c(cnc4cc3F)N(C)C(=O)C53CN(c4ccccc4)C3)cnc2OCCNC(C)C)sn1 [Example 521] | 1 to 100 nM |
| CN1C(=O)C2(CCC2)c2c1cnc1cc(F)c(-c3cnc(OCCNC4CCC4)c(NS(C)(=O)=O)c3)cc21 [Example 377, N-(2-(2-(Cyclobutylamino)ethoxy)-5-(7′-fluoro-3′-methyl-2′-oxo-2′,3′-dihydrospiro[cyclobutane-1,1′-pyrrolo[2,3-c]quinolin]-8′-yl)pyridin-3-yl)methanesulfonamide] | > 100 nM |
| CCC(CC)N1CC2(C1)C(=O)N(C)c1cnc3cc(F)c(-c4cnc(OCCNC(C)C)c(NS(C)(=O)=O)c4)cc3c12 [Example 490, N-(5-(7′-Fluoro-3′-methyl-2′-oxo-1-(pentan-3-yl)-2′,3′-dihydrospiro[azetidine-3,1′-pyrrolo[2,3-c]quinolin]-8′-yl)-2-(2-(isopropylamino)ethoxy)pyridin-3-yl)methanesulfonamide] | 1 to 100 nM |
